Data: article PMC6394301, “Evaluation of the anticancer potential of a sulphonamide carbonic anhydrase IX inhibitor on cervical cancer cells” (Journal of Enzyme Inhibition and Medicinal Chemistry, 2019)

Columns and labels:
HeLa cells [1] = assay: Intracellular total antioxidant status (TAS); format: cell-based, human; settings: positive control group
Procedure: The cellular TAS amount was determined using a new colourimetric assay method, which was improved by Erel[25]. This process is withstanding on the bleaching of the ostensible colour of the 2,2′-azino-bis [3-ethylbenzothiazoline-6-sulfonic acid] (ABTS) radical cation via the action of antioxidants. Upon the addition of a sample, the oxidative reactions initiated by the hydroxyl radicals present in the reaction mixture are inhibited by the antioxidant components of the lysate, preventing colour change and thus providing an effective measure of the TAS value of the lysate. The precision of this test has high accuracy (less than 3% error rate). Analysis results were expressed as mmol Trolox equiv/mg protein.

HeLa cells [2] = assay: Oxidative stress index (OSI); format: cell-based, human
Procedure: Percentage of TOS to TAS amount is taken into account in order to determine the oxidative stress index (OSI)[27]. Oxidative stress index was determined according to the equation outlined below:
OSI = (TOS (μ mol H2O2 equiv/g))/(TAS (μ mol Trolox equiv/g)) × 10

HeLa cells [3] = assay: WST-1 cell viability assay, HeLa; format: cell-based, human; settings: for IC50: WST-1
Procedure: (§1) Since it is an unstable amino acid, the medium was supplemented with L-glutamine immediately prior.
(§2) WST-1 Cell Proliferation test, a product of the Roche Company is a colourimetric assay based on the cleavage of a tetrazolium salt by mitochondrial dehydrogenases to generate formazan in living cells. This assay is simple because only 10 μL of WST-1 reactant is added to 100 μL media on a 96-well plate. The cells were counted with a haemocytometer immediately before the subsequent procedures. The HeLa and PNT1A cells were used for seeding, with 5 × 10^3 cells per well, and then incubated overnight in a humidified atmosphere (37 °C with 5% CO2).
(§3) The next day, WST-1 is added to cells treated with S-1 as a cytotoxic reagent and the incubation is continued for an additional 1−2 h in a humidified atmosphere. One of the advantages of the WST-1 test is that colour change (yellow) can be seen with the naked eye.
(§4) After incubation, the plate was shaken well for 1 min. The absorbance is then measured at 450 nm versus a 650 nm reference by using a plate reader (M5, Spectra MAX) and SoftMax Pro software from Molecular Devices to compare experimental samples to controls.
(§5) IC50 is a measure used to estimate the potency of a material that inhibits a specific biological or biochemical function.
We determined the cell viability of CC cell line HeLa grown in 96-well plates for 24, 48, 72 h and treated with increasing concentrations (0, 2.5, 5, 10, 25, 50, 100, 200 μM) of S-1. Cell viability was evaluated with colourimetric WST-1 assay as described previously tested on the splitting of the tetrazolium salt by mitochondria dehydrogenases in viable cell. […] The number of viable cells was then quantified using trypan blue exclusion.

PNT1-A cells = assay: WST-1 cell viability assay, PNT1-A; format: cell-based, human; settings: PNT1-A 24 h
Procedure: as §1, §2, §3, §4, §5

HeLa cells [4] = assay: Intracellular total oxidant status (TOS); format: cell-based, human
Procedure: The amount of cellular TOS was measured using an automated colourimetric reading process advanced by Erel[26]. In this method, the oxidation reaction is increased by the presence of excess glycerol in the reaction medium. Ferric ion forms a coloured complex with chromogen orange in an acidic environment. The spectrophotometrically measurable colour intensity is concerned to the whole level of oxidant molecules existent in the specimen. The assay is calibrated with H2O2, and the results are expressed in terms of micromolar H2O2 per mg protein (μmol H2O2 Equiv./mg protein).

CA-IX = settings: read-out: Ki value of CA-IX; cited from earlier work
[5] = Stability of the imine bond in the assay medium; format: physicochemical

| SMILES | TAS value (HeLa cells [1]) | OSI value (HeLa cells [2]; positive control, from TOS and TAS) | IC50 (HeLa cells [3]; HeLa 24 h) [µM] | IC50 (HeLa cells [3]; HeLa 48 h) [µM] | IC50 (HeLa cells [3]; HeLa 72 h) [µM] | IC50 (PNT1-A cells) [µM] | TOS level (HeLa cells [4]; positive control group) | Ki (CA-IX) [µM] | OSI value compared with Cisplatin (HeLa cells [2]; 100 μM concentration) | stability in the assay medium [5] | IC50 (HeLa cells [3]; Homo sapiens, HeLa 24 h) [µM] | IC50 (HeLa cells [3]; Homo sapiens, HeLa 48 h) [µM] | IC50 (HeLa cells [3]; Homo sapiens, HeLa 72 h) [µM] | viability at 200 µM (HeLa cells [3]; Homo sapiens, HeLa, 200 μM, 48 h incubated, read-out: greatest viability loss) [%] | IC50 (PNT1-A cells; Homo sapiens, PNT1A) [µM] | TOS level compared with Cisplatin (HeLa cells [4]; doses 50, 100 µM) |
| --- | --- | --- | --- | --- | --- | --- | --- | --- | --- | --- | --- | --- | --- | --- | --- | --- |
| N.N.[Cl][Pt][Cl] [Cisplatin, cisplatin, reference compound] | 0.67 mmol Trolox equiv/mg protein | 1.72 | 28.9 | 7.6 | 6.1 | 13.4 | 11.49 μmol H2O2 Equiv./mg protein | – | – | – | – | – | – | – | – | – |
| NS(=O)(=O)c1ccc(N=Cc2cc(Cl)cc(Cl)c2O)cc1 [S-1, 4-[(3,5-Dichloro-2-hydroxybenzylidene)amino]benzenesulfonamide] | – | – | – | – | – | – | – | 0.0356 | too close to the level of Cisplatin | stable | 25.2 | 42.9 | 84.1 | 5.5 | 198 | nearly same effect as Cisplatin |
